Biological target: Cannabinoid receptor 1 (Homo sapiens, UniProt P21554)
Assay type: functional

Chain of Cannabinoid receptor 1 (P21554 whole entry): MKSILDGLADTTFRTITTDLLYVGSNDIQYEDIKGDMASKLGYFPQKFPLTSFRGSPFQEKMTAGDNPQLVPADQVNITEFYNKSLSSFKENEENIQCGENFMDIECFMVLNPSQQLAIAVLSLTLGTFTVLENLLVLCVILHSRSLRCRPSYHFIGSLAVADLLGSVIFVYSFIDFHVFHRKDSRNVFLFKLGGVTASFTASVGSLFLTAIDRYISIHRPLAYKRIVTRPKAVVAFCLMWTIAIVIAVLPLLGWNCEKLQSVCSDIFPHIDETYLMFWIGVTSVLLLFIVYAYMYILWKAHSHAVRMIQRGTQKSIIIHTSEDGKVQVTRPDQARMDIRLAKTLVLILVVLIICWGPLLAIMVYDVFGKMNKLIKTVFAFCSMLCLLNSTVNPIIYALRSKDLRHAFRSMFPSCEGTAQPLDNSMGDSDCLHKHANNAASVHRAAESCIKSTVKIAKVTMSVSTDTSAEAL

Compared with `CC(=O)Nc1cc(=O)n(C)c2nc(-c3ccc(Cl)cc3Cl)c(-c3ccc(Cl)cc3)cc12`, `CC(=O)Nc1c(C#N)c(=O)n(C)c2nc(-c3ccc(Cl)cc3Cl)c(-c3ccc(Cl)cc3)cc12` is 3.2-fold lower in IC50: 0.112 µM for the first, 0.0355 µM for the second. The second is the more potent here.

`CC(NC(=O)C(C)(C)Oc1cccc(Cl)c1)C(Cc1ccc(Cl)cc1)c1ccccc1` (stereo not drawn) and `CC(NC(=O)C(C)(C)Oc1ccc(Cl)cn1)C(Cc1ccc(Cl)cc1)c1ccccc1` (stereo not drawn) are within 1.5-fold of each other in IC50: 0.00151 µM for the first, 0.00132 µM for the second.

First: CC(C)NC(=O)N1CCN(C(c2ccc(Cl)cc2)c2ccccc2C(F)(F)F)CC1 (stereo not drawn)
Second: CC(C)NC(=O)N1CCN(C(c2ccc(Cl)cc2)c2ccccc2Cl)CC1 (stereo not drawn)
The IC50 of the first is 17-fold higher: 6.61 µM for the first, 0.398 µM for the second. The second is the more potent here.

Going from `CC(NS(=O)(=O)Cc1ccccc1)C(Cc1ccc(Cl)cc1)c1cccc(C#N)c1` (stereo not drawn) to `CC(NS(C)(=O)=O)C(Cc1ccc(Cl)cc1)c1cccc(C#N)c1` (stereo not drawn), the IC50 rises from 0.0209 µM to 2.04 µM (98-fold). The first is the more potent here.

First: CC(NS(=O)(=O)C(C)(C)C)C(Cc1ccc(Cl)cc1)c1cccc(C#N)c1 (stereo not drawn)
Second: CC(NC(=O)C(C)(C)Oc1cc(F)cc(F)c1)C(Cc1ccc(Cl)cc1)c1ccccc1 (stereo not drawn)
The IC50 of the first is 1500-fold higher: 1.7 µM for the first, 0.00112 µM for the second. The second is the more potent here.

Going from `Cc1ccccc1C(c1ccc(Cl)cc1)N1CCN(C(=O)NC(C)C)CC1` (stereo not drawn) to `CC(C)NC(=O)N1CCN(C(c2ccc(Br)cc2)c2ccccc2Cl)CC1` (stereo not drawn), the IC50 falls from 2.19 µM to 0.776 µM (2.8-fold).

In the case of `O=C(NCC1CCC1)N1CCN(C(c2ccc(Cl)cc2)c2ccc(Cl)cc2)CC1`, the IC50 is reported as 3.47 µM.

From ChEMBL document CHEMBL1136897, “Predictive models of Cannabinoid-1 receptor antagonists derived from diverse classes” (Bioorg Med Chem Lett, 2009)
